Solubility data for 63 compounds are collected here from the OPERA property sets (Mansouri et al. 2018).

A word on the solubility: it is how much of the substance goes into solution per volume.

≈ marks a conversion by molar mass, not a printed value.

Conditions in one data set: not given
The compound `c1ccc2c(c1)-c1cccc3c1c-2cc1ccccc13` registered a solubility of 5.94e-06 mM (≈ 0.0015 µg/mL). That is a single-digit nanomolar value.

`CNC(=O)O/N=C1\[C@@H](Cl)[C@@H]2C[C@H](C#N)[C@H]1C2` yielded a solubility of 8.28 mM (≈ 2000 µg/mL).

`CCC[C@H]1CCCCN1` gave a solubility of 141 mM (≈ 18000 µg/mL). Compared with the last compound, the solubility is about 17-fold higher.

In turn, `Cn1c(=O)[nH]c2[nH]c(=O)[nH]c2c1=O` came in with a solubility of 27.5 mM (≈ 5000 µg/mL).

In turn, `CNC(=O)Oc1cccc(N=CN(C)C)c1` yielded a solubility of 4.52 mM (≈ 1000 µg/mL).

On to `Cc1cccc(Cl)c1`, for which the solubility worked out at 0.3 mM (≈ 38 µg/mL).

Consider `CC(=O)Oc1c(C(C)(C)C)cc([N+](=O)[O-])c(C)c1[N+](=O)[O-]`, for which the solubility was determined as 0.0338 mM (≈ 10 µg/mL).

As to `CC1=C(C(=O)O)N2C(=O)[C@@H](NC(=O)[C@H](N)C3=CCC=CC3)[C@H]2SC1`, the solubility is 61 mM (≈ 21300 µg/mL).

Consider `CC=CCCl`, for which the solubility was determined as 11 mM (≈ 1000 µg/mL).

Turning to `CC(C)OC(=O)COc1ccc(Cl)cc1Cl`, the solubility stood at 0.142 mM (≈ 37.3 µg/mL).

As for `O=C(O)c1ccc(Cl)cc1Cl`, the solubility came to 2.5 mM (≈ 478 µg/mL). This solubility lies about 18-fold higher than the previous one.

Still in this data set, the particulars now being: 20 °C.
As to `CSc1nc(N=[N+]=[N-])nc(NC(C)C)n1`, the solubility was 0.244 mM (≈ 55 µg/mL).

`COc1ccc(Oc2ccc(NC(=O)N(C)C)cc2)cc1` gave a solubility of 0.0699 mM (≈ 20 µg/mL).

Consider `Clc1ccc(-c2ccc(Cl)c(Cl)c2Cl)cc1`, for which the solubility was 0.000133 mM (≈ 0.0389 µg/mL). This solubility lies about 530-fold lower than the previous one.

Regarding `CC(=O)CCC1C(=O)N(c2ccccc2)N(c2ccccc2)C1=O`, the solubility is 0.54 mM (≈ 174 µg/mL).

For `Clc1ccc(Cl)c(-c2cc(Cl)c(Cl)c(Cl)c2Cl)c1`, the solubility was 2.09e-05 mM (≈ 0.00755 µg/mL).

With `CCNc1nc(NC(C)CC)nc(OC)n1` (stereo not drawn), the solubility was 2.71 mM (≈ 610 µg/mL).

`O=C(O)CCc1ccccc1` displayed a solubility of 39.3 mM (≈ 5900 µg/mL). Against the preceding compound, the solubility is about 15-fold higher.

On to `CC(C)OC(=O)C(C)N(C(=O)c1ccccc1)c1ccc(F)c(Cl)c1` (stereo not drawn), for which the solubility is 0.0373 mM (≈ 13.6 µg/mL). This solubility lies about 1100-fold lower than the previous one.

In turn, `CCOC(=O)C(c1c(O)c2ccccc2oc1=O)c1c(O)c2ccccc2oc1=O` returned a solubility of 0.375 mM (≈ 153 µg/mL). Against the preceding compound, the solubility is about 10-fold higher.

In turn, `CN(C)C(=O)Nc1ccc(Oc2ccc(Cl)cc2)cc1` displayed a solubility of 0.0127 mM (≈ 3.7 µg/mL).

In the case of `Oc1cccnc1`, the solubility stood at 350 mM (≈ 33300 µg/mL).

Take `C[C@H](CCC(=O)O)[C@H]1CC[C@H]2[C@@H]3[C@@H](O)C[C@@H]4C[C@H](O)CC[C@]4(C)[C@H]3CC[C@]12C`: the solubility was found to be 0.108 mM (≈ 42.4 µg/mL).

Take `CCCCCCCCCCCCC(=O)O`: the solubility was determined as 0.154 mM (≈ 33 µg/mL).

`CCCCOC(=O)CCC` registered a solubility of 3.47 mM (≈ 500 µg/mL).

With `O=c1nc[nH]c2nccnc12`, the solubility worked out at 33.8 mM (≈ 5000 µg/mL). This solubility is about 9.7-fold higher than that of the compound before.

Take `c1ccc2c(c1)ccc1c2ccc2c3ccccc3ccc21`: the solubility stood at 1.55e-05 mM (≈ 0.00431 µg/mL).

Compound `O=C(O)C1(O)c2ccccc2-c2ccc(Cl)cc21` (stereo not drawn) came in with a solubility of 0.076 mM (≈ 19.8 µg/mL).

Turning to `O=[N+]([O-])c1cc(Cl)c(Cl)c(Cl)c1Cl`, the solubility came to 0.028 mM (≈ 7.3 µg/mL).

On to `CCCCCC(=O)OC`, for which the solubility is 10.2 mM (≈ 1330 µg/mL). This solubility is about 360-fold higher than that of the compound before.

For the compound `c1ccc2c(c1)cnc1ccccc12`, the solubility turned out to be 1.67 mM (≈ 300 µg/mL).

`COC(=O)c1cccnc1` came in with a solubility of 347 mM (≈ 47600 µg/mL).

In turn, `Clc1cc(Cl)c(-c2cccc(Cl)c2Cl)cc1Cl` returned a solubility of 8.7e-05 mM (≈ 0.0284 µg/mL). That is a double-digit nanomolar value.

Take `Cc1ccccc1OCC(O)CO` (stereo not drawn): the solubility was found to be 64.8 mM (≈ 11800 µg/mL).

Compound `Clc1ccc(-c2ccccc2Cl)cc1Cl` had a solubility of 0.000516 mM (≈ 0.133 µg/mL). This lies in the sub-micromolar range.

Compound `COC(=O)C(C)N(C(=O)c1ccco1)c1c(C)cccc1C` (stereo not drawn) came in with a solubility of 0.763 mM (≈ 230 µg/mL).

`C[C@H](O)C(=O)Nc1c(I)c(C(=O)NC(CO)CO)c(I)c(C(=O)NC(CO)CO)c1I` showed a solubility of 180 mM (≈ 140000 µg/mL).

Still in this data set, the particulars now being: 21 °C.
On to `CC12CCC(CC1)C(C)(C)O2`, for which the solubility was found to be 17.2 mM (≈ 2650 µg/mL). That is a millimolar value.

For `CCOc1ccc(NC(N)=O)cc1`, the solubility was determined as 6.71 mM (≈ 1210 µg/mL).

Compound `O=C(O)CCCCCCCCCC(=O)O` displayed a solubility of 23.6 mM (≈ 5100 µg/mL).

The data set is the same for the next values; noted with them: 22 °C.
Compound `CCOC(=O)C(=O)C(=O)OCC` gave a solubility of 3250 mM (≈ 566000 µg/mL).

Compound `O=C(O)[C@@H](O)[C@H](O)[C@H](O)[C@@H](O)C(=O)O` displayed a solubility of 229 mM (≈ 48000 µg/mL).

The data set is the same for the next values; noted with them: 23 °C.
`NC(=O)CC(N)C(=O)O` (stereo not drawn) gave a solubility of 172 mM (≈ 22700 µg/mL).

Regarding `C[C@]12CC[C@@H](O)C[C@@H]1CC[C@@H]1[C@@H]2[C@H](O)C[C@]2(C)C(=O)CC[C@@H]12`, the solubility worked out at 0.255 mM (≈ 78.2 µg/mL).

In turn, `Clc1ccccc1-c1cc(Cl)c(Cl)c(Cl)c1Cl` registered a solubility of 5.17e-05 mM (≈ 0.0169 µg/mL). Compared with the last compound, the solubility is about 4900-fold lower.

Take `CC(=O)Nc1cc(NS(=O)(=O)C(F)(F)F)c(C)cc1C`: the solubility turned out to be 0.58 mM (≈ 180 µg/mL).

The data set is the same for the next values; noted with them: 24 °C.
As to `CC(C)N(N=O)C(C)C`, the solubility came out at 99.9 mM (≈ 13000 µg/mL).

The compound `Nc1cccc2nc3ccccc3cc12` registered a solubility of 0.06 mM (≈ 11.7 µg/mL).

Compound `CC1CCCCC1C` (stereo not drawn) returned a solubility of 0.0748 mM (≈ 8.4 µg/mL).

For the compound `O=C(O)c1ccc(O)c(C(=O)O)c1`, the solubility was 1.65 mM (≈ 300 µg/mL).

As to `O=NN1CCCCC1`, the solubility turned out to be 670 mM (≈ 76500 µg/mL). Compared with the last compound, the solubility is about 410-fold higher.

The data set is the same for the next values; noted with them: 25 °C.
`C#C[C@]1(OC(C)=O)CC[C@H]2[C@@H]3CCC4=CC(=O)CC[C@@H]4[C@H]3CC[C@@]21C` showed a solubility of 0.0161 mM (≈ 5.47 µg/mL).

For the compound `CC(C)(OO)c1ccccc1`, the solubility amounted to 91.3 mM (≈ 13900 µg/mL).

`Cc1ccc(C(=O)O)cc1`: the solubility was 2.5 mM (≈ 340 µg/mL).

Compound `C#CCCCCC` gave a solubility of 0.977 mM (≈ 94 µg/mL).

Turning to `CCCCCCC`, the solubility turned out to be 0.0339 mM (≈ 3.4 µg/mL).

For the compound `NCC[C@H](O)C(=O)N[C@@H]1C[C@H](N)[C@@H](O[C@H]2O[C@H](CN)[C@@H](O)[C@H](O)[C@H]2O)[C@H](O)[C@H]1O[C@H]1O[C@H](CO)[C@@H](O)[C@H](N)[C@H]1O`, the solubility is 316 mM (≈ 185000 µg/mL).

Turning to `Clc1cc(Cl)cc(Cl)c1`, the solubility amounted to 0.0331 mM (≈ 6.01 µg/mL).

As for `CSCCC(N)C(=O)O` (racemic), the solubility was 331 mM (≈ 49300 µg/mL).

On to `OCc1ccccc1`, for which the solubility stood at 370 mM (≈ 40000 µg/mL). The solubility values of the last two compounds are within 1.5-fold of each other.

The compound `O=C(O)CCCCCCC(=O)O` came in with a solubility of 67.9 mM (≈ 11800 µg/mL).

The compound `Clc1cc(Cl)c(-c2c(Cl)cc(Cl)cc2Cl)c(Cl)c1` showed a solubility of 1.13e-06 mM (≈ 0.000408 µg/mL).

`Fc1ccc(I)cc1` yielded a solubility of 0.749 mM (≈ 166 µg/mL).
